The target of the experiment is T1, B7-1/CD28 (Homo sapiens, UniProt P33681).
T1 sequence (P33681 35-242 limits assumed): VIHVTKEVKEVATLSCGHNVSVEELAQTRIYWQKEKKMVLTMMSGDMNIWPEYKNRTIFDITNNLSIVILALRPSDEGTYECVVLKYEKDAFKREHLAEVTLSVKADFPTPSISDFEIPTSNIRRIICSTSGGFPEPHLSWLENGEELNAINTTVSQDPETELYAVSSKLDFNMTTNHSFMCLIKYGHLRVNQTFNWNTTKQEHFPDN
Briefly: CD28/B7-1 ELISA (B7-1/CD28 binding inhibition). To be noted: CD28-Fc coated wells, B7-1-Fc-biotin detection complex. As to the method: Evaluation of B7-1/CD28 Binding Inhibition for Test Compounds
Wells are coated with 300 ng CD28-Fc in carbonate buffer (pH 9.4) overnight at 4° C., blocked with 1% bovine serum albumin in tris-buffered saline (TBS) for 1 h at 22° C. and washed 3 times in TBS prior to assay. The detection complex is formed as follows: B7-1-Fc-biotin, prepared using NHS-LC-biotin (Pierce #21335) according to the manufacturers instructions (4.1 moles biotin/mole Fc), is added at 0.8 ug/ml to streptavidin-alkaline phosphatase (Caltag Sa1008 at 1:1000 in TBS. Gradient dilutions of test compound in dimethylsulfoxide (1% final) are added to this complex and incubated 30 min. at 22° C. Detection complex (+/− inhibitors) is then added to the CD28 coated wells for 25 min. at 22° C., washed 5 times with TBS, developed with the calorimetric substrate pNPP (Pierce #34045) in diethanolamine/MgCl2 buffer (pH 9.5) and read at 405 nm. The inhibition constant (IC50) is calculated by subtracting the background binding and comparing to uninhibited (DMSO alone) controls. The inhibition constant represents the concentration of test compound required to achieve 50% inhibition.
(In general: An ELISA detects its analyte on a solid surface through an enzyme-linked reagent.)

In the case of `O=c1c2c(-c3cccc(C(F)(F)F)c3)nc3sccc3c2[nH]n1-c1ccc(F)cc1` [Example 3, 2-(4-Fluorophenyl)-4-[3-(trifluoromethyl)phenyl]1,2-dihydro-3H-pyrazolo[3,4-d]thieno[2,3-b]pyridin-3-one], the IC50 (commonly the concentration that inhibits the measured activity by half) stood at 0.6 µM.
Next, `O=c1c2c(-c3cccc(C(F)(F)F)c3)nc3sccc3c2[nH]n1-c1ccc(Cl)cc1` [Example 4, 2-(4-chlorophenyl)-4-[3-(trifluoromethyl)phenyl]-1,2-dihydro-3H-pyrazolo-[3,4-d]thieno[2,3-b]pyridin-3-one]: 0.5 µM.
